# Assay results from US11173119B2 (YALE UNIVERSITY, priority 2012, dated 2021).
# What was measured:
# B16 melanomas = test: In vivo subcutaneous tumor studies, intratumoral nanolipogel therapy; parameters: species or system B6 albino mice
# Procedure: B16-F10 cells (ATCC) were cultured in DMEM (Gibco) and suspended at 2×10^6 cells/mL in 1×PBS (kept on ice) directly prior to injection. For subcutaneous tumor studies, female 6-8 week-old B6 albino mice were sedated with AErrane (isofluorane; Baxter) and the right hind flank was shaved prior to a subcutaneous injection of 50 μL of the cellular suspension. Tumors were monitored and treatment began when the average tumor area reached approximately 5.5 mm^2 (8-10 days after B16 injection; mice were rearranged to normalize tumor sizes across groups).
# Observers were blinded for tumor area and survival studies. […] Five mice per group were euthanized at different timepoints and tumors were extracted and weighed.
# [1] = cited from earlier work
# Splenocytes = test: IL-2 bioactivity study (splenocyte stimulation, IFN-γ ELISA); format: cell-based, B6 mouse; settings: IFN-γ production correlated with IL-2 concentration
# Procedure: Splenocytes were isolated from a B6 mouse and 1×10^6 cells were added in 500 μL T cell media to each well of a 24 well plate previously coated with 10 μg/mL anti-CD3 (coated overnight in 1×PBS at 4° C.) and 5 μg/mL soluble anti-CD28 (BD Biosciences). The media from release studies was filtered through a 0.22-μm syringe filter (Whatman) and 500 μL was added to the wells. Additionally all wells contained 5 μg/mL, soluble anti-CD28 (BD Biosciences). […] Cells were incubated at 37° C. and cellular stimulation was assessed after 72 hours using an IFN-γ ELISA (BD Biosciences).
# B16 lung metastases = test: Metastatic B16 lung tumor study, intravenous nanolipogel therapy; format: in vivo, B6 mice; settings: two weeks after initial treatment
# Procedure: Metastatic B16 melanomas were established in female 6-8 week old B6 mice by intravenous (tail vein) administration of 50 μL of B16 cellular suspension as described by Gorelik, et al. Nat Med 7, 1118-1122 (2001). […] After sacrifice, the chest cavity was exposed and the lungs perfused by making a small incision in the right atrium and injecting 10 mL of cold PBS into the right ventricle. Lung metastates were counted by blinded observers who recorded dark circular masses ranging from 0.1-3 mm as unique tumors.
smiles,measurement,setting,value
"Cc1cccc(-c2[nH]c(C(C)(C)C)nc2-c2ccc3c(c2)OCO3)n1.Cl [SB, 2-(5-benzo[1,3]dioxol-5-yl-2-tert-butyl-3H-imidazol-4-yl)-6-methylpyridine hydrochloride]",survival,B16 melanomas; intratumoral,did not improve survival
same,tumor growth (tumor area versus time),B16 melanomas; weekly intratumoral administration,failed to delay tumor growth
same,Log P,[1],4.33
same,bioactivity after lipogel incorporation,Splenocytes,unaffected
same,number of lung tumors,B16 lung metastases,failed to reduce the number of lung tumors
